Measured values as given in paper PMC5641083, “Blockage of FOXP3 transcription factor dimerization and FOXP3/AML1 interaction inhibits T regulatory cell activity: sequence optimization of a peptide inhibitor” (Oncotarget, 2017).

Assays:
[1] = biological target: T1, FOXP3/FOXP3 homodimerization (GST-FOXP3 and FOXP3-His) (Homo sapiens, UniProt Q9BZS1); assay: AlphaScreen FOXP3 homodimerization assay; type: biochemical; settings: GST-FOXP3 40 nM, FOXP3-His 300 nM
T1 construct: made in house; host or cells: E. coli
T1 sequence (Q9BZS1 1-421): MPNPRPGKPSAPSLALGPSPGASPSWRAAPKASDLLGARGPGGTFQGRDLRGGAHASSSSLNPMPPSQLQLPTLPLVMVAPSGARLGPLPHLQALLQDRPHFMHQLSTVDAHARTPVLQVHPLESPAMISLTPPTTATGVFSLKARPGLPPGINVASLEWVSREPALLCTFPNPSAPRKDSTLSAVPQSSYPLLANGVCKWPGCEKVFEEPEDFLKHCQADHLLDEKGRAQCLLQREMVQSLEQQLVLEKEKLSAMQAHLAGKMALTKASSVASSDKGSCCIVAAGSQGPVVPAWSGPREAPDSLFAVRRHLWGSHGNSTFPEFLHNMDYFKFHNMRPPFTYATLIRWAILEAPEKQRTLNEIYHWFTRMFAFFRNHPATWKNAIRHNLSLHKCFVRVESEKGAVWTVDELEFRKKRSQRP
Source text: AML1 is required for IL-2 and IFN-γ gene expression in conventional CD4+ T cells and its interaction with FOXP3 is needed for the immunosuppressive activity of Tregs. On the other hand, it has been described that the leucine zipper region is necessary and sufficient to mediate FOXP3 homo-dimerization, which is required for its function as a transcriptional regulator [13, 15, 20]. Thus, since P60 binds to this FOXP3 intermediate region, we analyzed if it could act as a decoy molecule to inhibit FOXP3 homodimerization or the FOXP3-AML1 heterodimerization. The capacity of FOXP3 to homodimerize was measured using the […] assay platform AlphaScreen™ (Perkin Elmer). Previous protein-cross titration experiment using different concentrations of FOXP3-6His (from 1000 to 0 nM) and GST-FOXP3 (from 300 to 0 nM) allowed us to define the optimal protein concentrations to analyze FOXP3 homodimerization (Figure 2A). […] We also tested if GST tagged FOXP3 was able to interact with AML1 protein tagged with 6 His at the N-terminus. As shown in the cross titration experiments in Figure 2C, a specific FOXP3-AML1 heterodimerization was visualized as an increase in the AlphaScreen signal.
FOXP3/AML1 heterodimerization, as well as FOXP3/FOXP3 homodimerization were analyzed by Alphascreen technology according to the manufacturer's instructions (Perkin Elmer, Benelux) as previously described.

[2] = test system: FOXP3-6His (native FOXP3, 1-421); assay: Surface plasmon resonance, peptide binding to FOXP3-coated chip; settings: FOXP3 coated on chip; mutants compared with original P60
Protocol: Using truncated versions of FOXP3, we attempted to identify the FOXP3 domain interacting with peptide P60, described previously by or group as a FOXP3 inhibitory peptide. Thus, besides native FOXP3 we prepared the deletion mutants FOXP3 (1-331) (lacking the C-terminus of FOXP3), FOXP3 (177-421) (lacking the N-terminus) and FOXP3 (1-177) (encompassing only the N-terminus of FOXP3) (Figure 1A). They were coated on a chip for SPR experiments.
Screening of peptide binding to FOXP3 was performed by surface plasmon resonance (SPR) using ProteOn XPR36 (Bio-Rad, Hercules CA, USA) optical biosensor. Recombinant protein FOXP3-6His and the indicated truncated versions of FOXP3 were produced and purified from E-coli and immobilized covalently onto a GLM sensor chip (Bio-Rad) using sulfo-NHS and EDC (Bio-Rad) coupling reagents. After protein immobilization, chip surface was treated with ethanolamine to deactivate the excess of reactive esters. Individual peptide solutions (1–20 μM) were injected by triplicate in running buffer (Phosphate buffered saline, 0.005% (v/v) Tween 20, pH 7.4) at a flow of 30 μl/min. The interspot signal (obtained in the chip surface not immobilized with protein) was used as reference.

[3] = test system: CT26 tumor cells; settings: AH1 in IFA, P60 50 nanomol/mice/day i.p. day 0 to day 9, 5 × 10^5 cells; cited from earlier work
[4] = test system: murine Treg cells; type: cell-based, BALB/c mice
Source text: Results shown in Figures 1–3 correspond to cell-free assays where peptides can interact directly with its corresponding protein partner. However, FOXP3 binding peptides need to enter into the cell in order to inhibit FOXP3 functions. Once we identified some mutants with higher capacity to bind FOXP3, we studied their capacity to inhibit the suppressor activity of natural Tregs in vitro. Thus, we activated effector T cells with anti-CD3 monoclonal antibody in the presence of Tregs, and analyzed the capacity of each peptide to restore T cell proliferation inhibited by Treg cells. […] Indeed, when results from the point-variant screening are represented as a heat map, it is clear that introduction of an alanine at positions 2, 5 and 11 improved activity of the original P60, whereas alanine mutations at positions 1, 7, 8, 9, 10 and 12 are detrimental (Figure 4C).
Isolation of murine CD4^+CD25^+, and CD4^+CD25^− T-cells was performed from murine spleen cells by using murine regulatory T-cell isolation kit (Miltenyi Biotec, Bergisch Gladbach, Germany) according to manufacturer's instructions. The purity of the resulting T-cell populations was confirmed to be > 95% by flow cytometry.
Inhibition of murine T regulatory cell function was measured in an in vitro assay of T-cell stimulation. CD25+ depleted spleen cells (10^5 cells/well) from BALB/c mice were stimulated in vitro with 2, 5 μg/ml of anti-mouse CD3 antibody (Pharmingen) in the presence/absence of purified Treg cells (10^4 cells/well). T-cell proliferation was measured 3 days later as previously described.

- FOXP3 binding capacity by SPR (in words) [2]: bound with high affinity
- IC50 [4]: 38.3 µM
Substance: H-RDFQSFRKMWPFFAM-OH [P60]
- Inhibition of FOXP3 homodimerization (in words) [1]: able to impair FOXP3 dimerization in a dose dependent manner
- Protection against CT26 tumor challenge (in words) [3]: protected mice from CT26 tumor challenge
